Laboratory results from patent US6040149A, “Assay for identifying agents which act on the ceramide-activated protein kinase, kinase suppressor of ras, and methods of using said agents” (priority 1997, dated 2000).

Experiments:
Raf-1 [1] = assay: Raf-1 activity after co-expression with KSR in COS-7 cells; type: cell-based, human (Raf-1 expressed in COS-7 cells)
Description: Some studies used untagged KSR (n=4) and yielded identical results. At 60 hours post-transfection, cells were lysed with RIPA buffer (NP-40 buffer containing 0.1% SDS and 0.1% deoxy cholate). […] […]. The samples were boiled for 5 min, resolved with SDS-PAGE (7.5%) and autoradiographed.
[…]. After 30 min, the reaction was stopped by addition of Laemmli sample buffer and phosphorylated MBP were resolved by 15% SDS-PAGE, prior to autoradiography.
; a kind gift of Dr. Natalie Ahn) or 1.25 μg recombinant human MEK1 (Santa Cruz), 0.625 μg recombinant human ERK1 (UBI) and myelin basic protein (MBP). After 20-30 min, the reaction was stopped by addition of SDS sample buffer. […]

[2] = system: ceramide-activated protein kinase; assay: EGFR peptide phosphorylation by kinase in A-431 microsomal membranes / postnuclear supernatant; type: biochemical, human (A-431 epidermoid carcinoma cells)
Description: Kinetics of ^32 Pi incorporation into the EGFR peptide. […] The reaction was initiated by addition of 50 μl of [γ-^32 P]ATP (150 μM final concentration) and terminated by addition of 50 μl of 0.5 M ATP in 90% (vol/vol) formic acid. Samples were spotted on phosphocellulose paper, washed with 1 M acetic acid/4 mM pyrophosphate, and ^32 P incorporation was measured by liquid-scintillation counting, as described. A boiled protein blank was subtracted from each data value. The data (means) represent duplicate samples from one of two similar experiments. […]
Kinetics of ceramide-induced ^32 Pi incorporation into EGFR peptide. Peptide phosphorylation was done as described in FIG. 2 in the absence (.smallcircle.) or presence (.circle-solid.) of 0.5 μM C8 -ceramide. Phosphorylated peptide was resolved by HPLC. Values (means) represent data from three experiments.
Concentration-dependence of ceramide-induced ^32 Pi incorporation into EGFR peptide. Peptide phosphorylation reactions were done as described for FIG. 2, for 2 minutes, using various concentrations of ceramide (0.001-3 μM). Phosphorylated peptide was resolved by HPLC. Values (means) represent data from three experiments. […]
Phosphorylation was initiated at 22° C. by addition of 50 μl of [γ-^32 P] ATP (150 μM final concentration; 4000 dpm/pmol). For studies with lipid activators, ceramide and other lipids were dried under N2 and resuspended in the kinase assay buffer by bath sonication for 2 minutes at 37° C.
Phosphorylated peptide was quantified by two separate methods. For initial studies, samples were spotted on phosphocellulose paper, washed in 1 M acetic acid/4 mM pyrophosphate and subjected to liquid scintillation counting, according to methods well known to those skilled in the art. Values obtained from a boiled blank or a sample lacking peptide were subtracted from each determination. Alternatively, HPLC was done according to methods well known to those skilled in the art. For these studies, samples were first applied to a C18 Sep-Pak cartridge and eluted with 99.9% acetonitrile/0.1% trifluoroacetic acid. The eluates were lyophilized, resuspended in 6 M guanidine hydrochloride/200 mM Tris, pH 8.5 and applied to a C18 reverse-phase column (Dynamax, 4.6 mm i.d., Rainin, Woburn, Mass.). The peptide was eluted with a linear gradient (1% per minute) of acetonitrile at a flow rate of 1 ml/minute and was detected by measuring the Cerenkov radiation associated with 1-ml fractions.

[3] = system: ceramide-activated protein kinase; assay: Ceramide-activated protein kinase activity (EGFR peptide) in EL-4 cell fractions; settings: 10 nM to 1 μM
Description: Effect of IL-1β on ceramide-activated protein kinase activity. […] Homogenates were centrifuged at 500×g for 5 minutes to remove nuclei and at 200,000×g for 30 minutes to prepare microsomal membranes. Membranes were resuspended into homogenizing buffer (2.2 μg membrane protein μl^-1). For assay of kinase activity, the reaction mixture contained 20 μl of microsomal membrane, 40 μl EGFR peptide (4 mg ml^-1 in 25 mM Hepes, pH 7.4) and 100 μl buffer (50 mM HEPES, pH 7.4, 20 mM MgCl2). Phosphorylation was initiated at 22° C. by addition of 40 μl [γ-^32 P] ATP (100 μM final concentration) and terminated at the indicated times by addition of 40 μl of 0.5 M ATP in 90% formic acid. Phosphorylated peptide was eluted from a C18 Sep pak cartridge (Millipore), lyophilized, and resolved by C18 reverse phase HPLC using a linear gradient of acetonitrile. […] All assays were performed under conditions determined as linear for time and enzyme concentration. Enzyme activity was determined from the percent conversion of substrate to product and the specific radioactivity of [γ-^32 P] ATP. […] Values (mean±range) represent duplicate determinations from two experiments.
Activity was measured by the transfer of ^32 P from the γ-position of ATP to EGFR peptide (AA 663-681 of the EGFR). The effect of IL-1β on kinase activity was determined using microsomal membranes derived from cells stimulated with IL-1β.

Raf-1 [4] = assay: Raf-1 phosphorylation in intact HL-60 cells; type: cell-based, human (HL-60 cells); settings: TNF 1 nM; ceramide; sphingomyelinase 10 mU/ml
Description: To examine this possibility, intact HL-60 cells were metabolically labeled with ^32 P-orthophosphate for 4 hr followed by stimulation with TNF for the indicated times (FIG. 20A). […] Raf-1 proteins were resolved by SDS-PAGE and autoradiographed.
FIG. 20A--300×10^6 cells were resuspended at 37° C. in 15 ml of serum-free phosphate-free RPMI medium ([…]) containing 6 mCi ^32 P-orthophosphate. After […], cells were resuspended into the same buffer without radiolabel (5×10^7 /point) and stimulated with TNF (1 nM). At the indicated times, ice-cold serum-free phosphate-free RPMI was added and cells were homogenized as described in FIG. 17 in RIPA lysis buffer. Cell debris was removed by centrifugation at 700×g for 5 min. […] After SDS-PAGE, Raf-1 was transferred to an Immobilon PVDF (Millipore) membrane according to the vendor's instructions. […] The data (CPM/Raf protein) are presented as fold of control and represent one of three studies performed in triplicate.

Raf-1 [5] = assay: Kinase activity of immunoprecipitated Raf-1 toward MEK1 after HL-60 cell stimulation; type: cell-based, human (HL-60 cells)
Description: Recovery of MEK1 was monitored by western blot (Bottom Panel). Identical results were obtained with cells stimulated for 5 min with TNF.
Recovery of MEK1 was monitored by western blot (Bottom Panel).
These studies indicate that Raf-1 is a component of the sphingomyelin pathway mediating TNF action.
MEK1 autophosphorylation was for 45 min. An autoradiogram of MEK1 phosphorylation (top panel) and recovery of MEK1 protein by western blot (bottom panel) are shown. For western blot, proteins separated by SDS-PAGE were electrotransferred to an Immobilon PVDF membrane at 12 volts overnight at 4° C. Membranes were then blocked with 2% BSA in TBS [20 mM Tris, pH 7.6, 137 mM NaCl] for 1 hr and washed with TBST (TBS containing 0.2% Tween-20).

[6] = system: ceramide-activated protein kinase; settings: ceramide 0.001 to 3 μM, of the control, ref. [40]; cited from earlier work
[7] = system: ceramide-activated protein kinase; settings: treatment of intact cells; literature; cited from earlier work
Raf-1 [8] = assay: Activation of Raf-1 by KSR in vitro (MEK1 phosphorylation)

Row | Substance | Raf-1 activation in COS-7 cells co-expressing KSR (Raf-1 [1]) | duration of stimulation ([2]; 0.5 μM ceramide) | onset of stimulation of EGFR peptide phosphorylation ([2]; 0.5 μM ceramide) | increase in kinase activity ([2]; 0.5 μM ceramide, by 30 s) | lowest effective concentration ([2]; 2 minutes of stimulation) | EGFR peptide phosphorylation, fold of control ([2]; 2 minutes of stimulation, maximal effect for ceramide at 1 μM) | EC50 ([2]; 2 minutes of stimulation, read-out: ED50 for EGFR peptide phosphorylation) | concentration inducing maximal phosphorylation ([2]; EGFR peptide phosphorylation) | lowest effective concentration ([2]; EGFR peptide phosphorylation, A-431) | effect on EGFR peptide phosphorylation ([2]; words) | enhancement of kinase activity, of control [3] | Raf-1 phosphorylation in intact HL-60 cells (Raf-1 [4]) | effect on kinase activity of Raf-1 toward MEK1 (Raf-1 [5]) | maximum enhancement of kinase activity [6] | enhancement of CAP kinase autophosphorylation / activity [7] | KSR-dependent Raf-1 activity toward MEK1 in vitro (Raf-1 [8]) | activation of Raf-1 by ceramide in the absence of KSR (Raf-1 [8])
1 | Raf-1(T268V) | as effectively as wild type Raf-1 |  |  |  |  |  |  |  |  |  |  |  |  |  |  |  | 
2 | Raf-1(T269V) | not activated |  |  |  |  |  |  |  |  |  |  |  |  |  |  |  | 
3 | ceramide |  | at least 15 minutes | ≤ 30 s | 2 fold | 1 nM | 2.1 fold of control | ~30 nM | 1 µM | 1 nM | similarly effective | 1.5-2.5 of control | similarly induced Raf-1 phosphorylation | similarly enhanced activity toward MEK1 | two-fold | 5-10 fold | markedly enhanced | not stimulated
